We go through seven compounds from US20210330603A1 (priority 2020, published 2021).

Test [1] relates to EHEC. Briefly: Western blots of secreted translocon components EspA and EspB, EHEC (LEE-encoded T3SS activity). The class given is cell-based, Escherichia coli O157:H7. On the technique in general: Immunoblotting shows a protein as a band on a membrane.
In test [2] the test system is EHEC. The experiment in a line: Growth curves of EHEC in the presence of AA and AG (FIG. 22). As to conditions: concentrations of 80 and 160 μM. The class given is cell-based, Escherichia coli. An excerpt:
(§1) FIG. 22. Growth curves for Staphylococcus aureus (left side graphs) and EHEC (right side graphs) in the presence of AA (top graphs) and AG (bottom graphs).
(§2) Some lipids are antimicrobial with respect to certain bacteria.

Test [3] relates to C. rodentium. It is filed as cell-based, Citrobacter rodentium.
Test [4] deals with EHEC. It is filed as cell-based, Escherichia coli O157:H7.
Test [5] deals with S. Typhimurium. Briefly: Transcript levels of SPI-2 genes in S. Typhimurium. As to conditions: 10 μM 2-AG, SPI-2-inducing conditions, 3 hours. The class given is cell-based, Salmonella enterica serovar Typhimurium.
Test [6] concerns S. Typhimurium. The experiment in a line: SipA secretion by S. Typhimurium under SPI-1-inducing conditions. The class given is cell-based, Salmonella enterica serovar Typhimurium. The note with it: 10 μM 2-AG.
The subject of test [7] is EHEC. The experiment in a line: Fluorescent actin staining (FAS) assay, EHEC pedestal formation on HeLa cells. The class given is cell-based, Escherichia coli O157:H7. The note with it: EHEC treated with 10 μM 2-AG prior to infection of HeLa cells.
Test [8] relates to EHEC. Briefly: Western blots of lysate-associated EspA, EspB and Tir in EHEC. It is filed as cell-based, Escherichia coli O157:H7. As to conditions: late-log phase.
Another test concerns the target T1, QseC (Escherichia coli O157:H7, UniProt Q8X524).
T1 construct: Myc (C); His (C); made in house; host or cells: E. coli BL21(DE3) (printed 'B121 DE3'), arabinose induction, Ni-NTA purification
The experiment in a line: Autophosphorylation of QseC in liposomes. The class given is biochemical.

The next test addresses T2, CpxA (Escherichia coli O157:H7, UniProt P0AE84).
T2 construct: made in house; host or cells: E. coli BL21(DE3) (printed 'B121 DE3'), IPTG induction, Ni-NTA purification
T2 sequence (P0AE84 1-457): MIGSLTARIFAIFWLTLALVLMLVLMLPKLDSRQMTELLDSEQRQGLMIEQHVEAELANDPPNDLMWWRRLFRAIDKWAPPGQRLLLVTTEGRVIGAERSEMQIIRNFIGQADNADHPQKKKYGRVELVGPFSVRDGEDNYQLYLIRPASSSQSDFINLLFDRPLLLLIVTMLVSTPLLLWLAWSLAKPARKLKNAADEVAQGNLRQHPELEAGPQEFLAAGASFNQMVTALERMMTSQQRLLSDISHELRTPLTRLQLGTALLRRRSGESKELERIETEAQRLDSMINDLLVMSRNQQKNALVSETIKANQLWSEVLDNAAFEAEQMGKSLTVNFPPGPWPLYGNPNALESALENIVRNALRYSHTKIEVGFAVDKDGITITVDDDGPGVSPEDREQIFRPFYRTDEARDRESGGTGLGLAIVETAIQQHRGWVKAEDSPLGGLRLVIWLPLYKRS
Briefly: Autophosphorylation of CpxA in liposomes. The class given is biochemical. As to conditions: 10 μM 2-AG, 120 seconds or 10 minutes.

The subject of test [9] is C. rodentium. Briefly: Western blots of secreted translocon components EspA and EspB, C. rodentium. The class given is cell-based, Citrobacter rodentium. The note with it: physiological concentrations of 2-AG, late-log phase.
Test [10] deals with S. Typhimurium. The experiment in a line: Targeted qPCR of SPI-1 genes in S. Typhimurium. The class given is cell-based, Salmonella enterica serovar Typhimurium. As to conditions: 10 μM 2-AG, SPI-1-inducing conditions, late-log phase. (In qPCR the cycle at which signal appears reflects the starting amount.)
In a further test the test system is FusK. Briefly: qRT-PCR of LEE-encoded tir in EHEC ΔfusK. The class given is cell-based, Escherichia coli O157:H7. The note with it: 20 μM 2-AG, aerobic.
Test [11] deals with S. Typhimurium. Briefly: Macrophage infection, intramacrophagic survival of S. Typhimurium in J774.1 murine macrophages. It is filed as cell-based, Salmonella enterica serovar Typhimurium.
For test [12], the system named is C. rodentium. The experiment in a line: Growth kinetics of C. rodentium under LEE-inducing conditions (FIG. 11). It is filed as cell-based, Citrobacter rodentium. As to conditions: 10 μM 2-AG, microaerobic, DMEM-low glucose.
The test system of test [13] is S. Typhimurium. Briefly: Growth curves of S. Typhimurium under SPI-1-inducing conditions. It is filed as cell-based, Salmonella enterica serovar Typhimurium. The note with it: 10 μM 2-AG.
In test [14] the test system is S. Typhimurium. The experiment in a line: Epithelial invasion assay, S. Typhimurium on HeLa cells. The class given is cell-based, Salmonella enterica serovar Typhimurium. As to conditions: ST treated with 10 μM 2-AG prior to infection of HeLa cells.
Test [15] deals with EHEC. The experiment in a line: Growth kinetics of EHEC under LEE-inducing conditions (FIG. 11). It is filed as cell-based, Escherichia coli O157:H7. As to conditions: 10 μM 2-AG, microaerobic, DMEM-low glucose.
Test [16] deals with EHEC. It is filed as cell-based, Escherichia coli O157:H7. This is another data set of the same source.
The next test has as its system Staphylococcus aureus. The experiment in a line: Growth curves of Staphylococcus aureus in the presence of AA and AG (FIG. 22). It is filed as cell-based.
Source text: as §1, §2

Test [17] relates to EHEC 86-24. The experiment in a line: Growth rate and growth yield of EHEC with CBD. The class given is cell-based, Escherichia coli O157:H7.
The test system of test [18] is EHEC 86-24. Briefly: EspA immunoblot of EHEC grown with CBD. The class given is cell-based, Escherichia coli O157:H7. As to conditions: 50 μM CBD.
In another test the test system is EHEC strain 86-24. Briefly: qPCR of espA in EHEC grown in LG-DMEM with CBD. It is filed as cell-based, Escherichia coli O157:H7.
Another test relates to Citrobacter rodentium. The experiment in a line: Cannabidiol treatment of C. rodentium infected mice (fecal colony counts). It is filed as in vivo, mouse. As to conditions: single dose one-day post-infection.
The subject of test [19] is C. rodentium. Briefly: Pharmacological inhibition of MgI in C. rodentium infected mice (FIG. 23). The class given is in vivo, mouse.
Setting [20] is: physiological concentrations of 2-AG, late-log phase.

T1 sequence (Q8X524 whole entry): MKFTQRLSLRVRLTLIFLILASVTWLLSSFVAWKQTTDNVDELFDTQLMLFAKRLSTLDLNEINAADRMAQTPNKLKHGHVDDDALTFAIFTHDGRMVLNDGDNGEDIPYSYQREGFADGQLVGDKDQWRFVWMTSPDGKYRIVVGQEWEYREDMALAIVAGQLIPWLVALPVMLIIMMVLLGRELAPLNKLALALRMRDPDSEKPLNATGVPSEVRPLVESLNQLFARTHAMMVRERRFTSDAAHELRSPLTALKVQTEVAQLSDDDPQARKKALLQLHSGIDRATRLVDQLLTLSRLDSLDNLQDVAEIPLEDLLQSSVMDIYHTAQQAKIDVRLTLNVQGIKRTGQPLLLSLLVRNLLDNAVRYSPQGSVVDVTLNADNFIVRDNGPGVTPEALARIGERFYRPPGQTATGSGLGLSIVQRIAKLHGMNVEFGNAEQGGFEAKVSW

Regarding `CCCCC/C=C\C/C=C\C/C=C\C/C=C\CCCC(=O)OC[C@@H](O)CO` [1-AG, reference compound], in the test on EHEC [1] (1-AG in contrast to 2-AG, late-log phase), the “LEE-encoded T3SS activity (EspA and EspB secretion)” value is on record as “does not attenuate LEE-encoded T3SS activity”.

With `CCCCC/C=C\C/C=C\C/C=C\C/C=C\CCCC(=O)OC(CO)CO` [2-AG, 2-arachidonoyl-glycerol], the “growth of EHEC” value with EHEC [2] is given as “does not inhibit growth”. For the same compound, in the test with C. rodentium [3], the “expression of LEE-encoded genes in C. rodentium” value is listed as “decreased expression of LEE-encoded genes”. Further, in the test on EHEC [4], the “LEE transcription, targeted qPCR of LEE-encoded genes spanning its five operons” value was “inhibitory effects of 2-AG on LEE transcription were confirmed” and the “transcription of Shiga toxin (stx2a)” value is recorded as “no transcriptional effect”. Also, in the test on S. Typhimurium [5], the “expression of ssaV” value is “decreased expression” and the “expression of sseF” value is “decreased expression”. For the same compound, the “secretion of SipA” value with S. Typhimurium [6] is listed as “decreased secretion of SipA”. The “pedestal formation on epithelial cells (A/E lesion formation)” value in the test on EHEC [7] is “decreased pedestal formation”. In the test with EHEC [8], the “protein expression of EspA in EHEC lysates” value is reported as “significantly decreased”, the “protein expression of EspB in EHEC lysates” value is “significantly decreased” and the “protein expression of Tir in EHEC lysates” value is “significantly decreased”. The “Epi-mediated activation of QseC” value on QseC (6 μM 2-AG, 50 μM epinephrine, 30 minutes) is “inhibited Epi-mediated activation of QseC”. Besides, on QseC (QseC reconstituted into liposomes), the “QseC activation (autophosphorylation)” value is “significantly diminished”. Moreover, at CpxA, the “activity of CpxA (autophosphorylation)” value is “did not inhibit”. For the same compound, in the test on C. rodentium [9], the “EspA secretion, C. rodentium” value is “significantly reduced” and the “EspB secretion, C. rodentium” value is given as “significantly reduced”. Besides, in the test with S. Typhimurium [10], the “expression of hilD” value was “inhibits expression”, the “expression of sipA” value is recorded as “inhibits expression” and the “expression of sopB” value was “inhibits expression”. In the test with FusK, the “activity of FusK” value was “did not inhibit”. In the test with S. Typhimurium [11], the survival within macrophages result is “decreased survival within macrophages”. The “growth of C. rodentium” value in the test on C. rodentium [12] is “did not correspond with altered growth”. In addition, in the test on EHEC [1] (EHEC ΔfadL, 10 μM 2-AG), the “LEE activity in isogenic fadL mutant” value was “no longer inhibited”. Also, in the test with EHEC [1] (setting [20]), the “EspA secretion, EHEC” value was “significantly reduced” and the “EspB secretion, EHEC” value is recorded as “significantly reduced”. Besides, the “LEE functional activity in the qseC mutant in EHEC” value in the test with EHEC [1] (qseC isogenic mutant, 10 μM 2-AG) is listed as “not affected”. Further, the “S. Typhimurium growth kinetics” value with S. Typhimurium [13] is “did not alter”. Further, in the test with S. Typhimurium [14], the epithelial invasiveness entry is “attenuated epithelial invasiveness”. The “growth of EHEC” value in the test on EHEC [15] is reported as “did not correspond with altered growth”. In addition, in the test with EHEC [16], the “differentially expressed KEGG pathways (RNAseq)” value is recorded as “significantly altered the expression four KEGG pathways”, the “expression of LEE-encoded genes (RNAseq)” value is “significant downregulation of numerous LEE-encoded genes” and the “non-LEE encoded genes differentially expressed (RNAseq)” value was “few non-LEE encoded genes were differentially expressed”.

Turning to `Cc1c(C(=O)NN2CCCCC2)nn(-c2ccc(Cl)cc2Cl)c1-c1ccc(I)cc1` [AM251, reference compound], at QseC (6 μM 2-AG and AM251, 30 minutes, liposome system), the “effect on 2-AG-mediated inhibition of QseC activity” value is “prevented 2-AG-mediated inhibition of QseC activity”.

As to `CCCCC/C=C\C/C=C\C/C=C\C/C=C\CCCC(=O)O` [Arachidonic acid], the “growth of S. aureus” value in the test with Staphylococcus aureus is “inhibits the growth”.

On to `C=C(C)[C@@H]1CCC(C)=C[C@H]1c1c(O)cc(CCCCC)cc1O` [CBD, cannabidiol], for which the “growth rate and growth yield” value with EHEC 86-24 [17] is “neither the growth rate nor the growth yield for the wt and ΔqseC deletion strains were significantly altered”. Besides, in the test with EHEC 86-24 [18], the “expression of EspA protein (immunoblot)” value was “reduced expression of EspA”. In addition, in the test with EHEC strain 86-24 (wt EHEC 86-24, 50 μM CBD), the “decrease in expression of espA compared to the vehicle” value turned out to be 20.6 fold. In the test on EHEC strain 86-24 (ΔqseC deletion strain, 50 μM CBD), the “reduction in expression of espA between the control and CBD” value was 17.5 fold. In the test on Citrobacter rodentium, the “ability of Citrobacter rodentium to colonize the intestines of mice” value was “inhibited the ability”.

As for `O=C(Oc1ccc([N+](=O)[O-])cc1)N1CCC(C(O)(c2ccc3c(c2)OCO3)c2ccc3c(c2)OCO3)CC1` [JZL184], the “colonization of cecum tissues by C. rodentium” value in the test on C. rodentium [19] was “decreases colonization of cecum tissues”.

Regarding `CCCCC/C=C\C/C=C\C/C=C\C/C=C\CCCC(=O)NCCO` [anandamide, reference compound], in the test with EHEC [1] (anandamide 100 or 200 nM, late-log phase), the “LEE activity (EspA and EspB secretion)” value is recorded as “does not alter LEE activity”.
